In patent publication US20250154115A1, “ARYLBENZOISOXAZOLE COMPOUNDS AS IP6K AND IPMK INHIBITORS AND METHODS OF USE THEREOF” (THE UNIVERSITY OF NORTH CAROLINA AT CHAPEL HILL, priority 2022, published 2025):

Tests used:
Type in all cases: biochemical
Settings in all cases: enzyme-coupled assay; Table 4
IP6K1 = IP6K1 (Homo sapiens (Human), UniProt Q92551); assay: Enzyme-coupled assay of IP6K1 activity (Dipp1-coupled, malachite green Pi release)
Protocol: (§1) […] The cells were disrupted using a constant cell disruption system (Constant Systems) under 20 kPsi.
(§2) Pi release was determined with a malachite green colorimetric assay.^45 Where indicated, TNP (Cayman Chemical) was added to the assays (FIG. 2A-E).

IP6K2 = IP6K2 (Homo sapiens (Human), UniProt Q9UHH9); assay: Enzyme-coupled assay of IP6K2 activity (Dipp1-coupled, malachite green Pi release)
Protocol: as §1, §2

IPMK = IPMK (Homo sapiens (Human), UniProt Q8NFU5); assay: Enzyme-coupled assay, IPMK IC50
Chain of IPMK (Q8NFU5 whole entry, species assumed): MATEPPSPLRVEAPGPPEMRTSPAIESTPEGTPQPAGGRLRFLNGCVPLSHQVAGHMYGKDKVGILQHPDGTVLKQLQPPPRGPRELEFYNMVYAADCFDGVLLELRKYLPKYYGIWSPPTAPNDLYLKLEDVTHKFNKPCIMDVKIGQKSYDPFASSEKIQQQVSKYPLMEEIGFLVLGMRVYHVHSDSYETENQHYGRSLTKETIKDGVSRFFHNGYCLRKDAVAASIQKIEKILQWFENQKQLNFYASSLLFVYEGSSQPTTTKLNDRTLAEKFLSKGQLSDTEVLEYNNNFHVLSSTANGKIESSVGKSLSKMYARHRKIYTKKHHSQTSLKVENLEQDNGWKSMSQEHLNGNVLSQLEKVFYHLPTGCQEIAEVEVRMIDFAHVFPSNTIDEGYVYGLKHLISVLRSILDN

Chain of IP6K2 (Q9UHH9 whole entry): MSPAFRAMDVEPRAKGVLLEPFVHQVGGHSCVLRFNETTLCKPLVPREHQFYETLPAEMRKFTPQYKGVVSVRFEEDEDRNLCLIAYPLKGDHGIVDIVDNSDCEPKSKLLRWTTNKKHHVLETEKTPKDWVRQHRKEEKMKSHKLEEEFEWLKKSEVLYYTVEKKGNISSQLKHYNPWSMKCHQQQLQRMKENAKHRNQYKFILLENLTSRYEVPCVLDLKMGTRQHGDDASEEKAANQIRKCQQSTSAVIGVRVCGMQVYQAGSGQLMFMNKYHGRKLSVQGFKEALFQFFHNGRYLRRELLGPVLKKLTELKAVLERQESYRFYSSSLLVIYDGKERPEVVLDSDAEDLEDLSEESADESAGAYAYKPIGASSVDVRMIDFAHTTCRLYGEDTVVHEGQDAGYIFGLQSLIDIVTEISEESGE
Chain of IP6K1 (Q92551 whole entry): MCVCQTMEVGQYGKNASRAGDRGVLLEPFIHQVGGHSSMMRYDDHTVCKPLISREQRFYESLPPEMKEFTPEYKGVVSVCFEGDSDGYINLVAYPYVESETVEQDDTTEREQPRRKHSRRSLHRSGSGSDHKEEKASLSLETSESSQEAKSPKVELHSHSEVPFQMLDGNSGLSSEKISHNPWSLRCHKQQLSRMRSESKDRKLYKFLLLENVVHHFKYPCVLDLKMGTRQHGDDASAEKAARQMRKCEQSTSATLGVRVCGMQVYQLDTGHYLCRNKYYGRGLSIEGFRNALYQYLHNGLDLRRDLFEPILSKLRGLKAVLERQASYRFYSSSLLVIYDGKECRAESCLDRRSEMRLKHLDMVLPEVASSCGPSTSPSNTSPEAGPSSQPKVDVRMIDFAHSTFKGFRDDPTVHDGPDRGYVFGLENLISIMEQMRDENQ

Compound	IC50 (IP6K1)	IC50 (IP6K2)	IC50 (IPMK)
CN1CCC(Oc2cccc(-c3onc4ccc(-c5nnn[nH]5)cc34)c2)CC1 [Compound 86]	10 to 100 nM	10 to 100 nM	10 to 100 nM
CC(C)N1CCC(Oc2cccc(-c3onc4ccc(-c5nnn[nH]5)cc34)c2)CC1 [Compound 87]	10 to 100 nM	10 to 100 nM	10 to 100 nM
c1cc(OC2CCN(CC3CC3)CC2)cc(-c2onc3ccc(-c4nnn[nH]4)cc23)c1 [Compound 88, 3-(3-((1-(cyclopropylmethyl)piperidin-4-yl)oxy)phenyl)-5-(1H-tetrazol-5-yl)benzo[c]isoxazole]	10 to 100 nM	100 to 1000 nM	10 to 100 nM
c1cc(OC2CNC2)cc(-c2onc3ccc(-c4nnn[nH]4)cc23)c1 [Compound 92]	10 to 100 nM	10 to 100 nM	–
CC1(C(=O)N2CCC(Oc3cccc(-c4onc5ccc(-c6nnn[nH]6)cc45)c3)CC2)COC1 [Compound 93]	100 to 1000 nM	10 to 100 nM	–
O=C(C1CCCC1)N1CCC(Oc2cccc(-c3onc4ccc(-c5nnn[nH]5)cc34)c2)CC1 [Compound 94]	10 to 100 nM	10 to 100 nM	–
Nc1cccc(-c2ccc(-c3onc4ccc(-c5nnn[nH]5)cc34)cc2)c1 [Compound 95]	10 to 100 nM	10 to 100 nM	–
CC(C)(C)OC(=O)Nc1cccc(-c2cccc(-c3onc4ccc(-c5nnn[nH]5)cc34)c2)c1 [Compound 96]	10 to 100 nM	10 to 100 nM	–
Nc1cccc(-c2cccc(-c3onc4ccc(-c5nnn[nH]5)cc34)c2)c1 [Compound 97]	10 to 100 nM	10 to 100 nM	–
O=C(Nc1ccc(-c2onc3ccc(-c4nnn[nH]4)cc23)cc1)C1CCCCC1 [Compound 98]	100 to 1000 nM	–	–
O=C(Nc1ccc(-c2onc3ccc(-c4nnn[nH]4)cc23)cc1)C1CCNCC1 [Compound 99]	100 to 1000 nM	–	–
O=C(Nc1ccc(-c2onc3ccc(-c4nnn[nH]4)cc23)cc1)[C@@H]1CCCN1 [Compound 100]	100 to 1000 nM	–	–
O=C(Nc1ccc(-c2onc3ccc(-c4nnn[nH]4)cc23)cc1)C1CCNC1 (centres unmarked) [Compound 101]	100 to 1000 nM	–	–
c1cc(-c2onc3ccc(-c4nnn[nH]4)cc23)cc(C2CCNCC2)c1 [Compound 104]	100 to 1000 nM	–	–
c1cc(-c2onc3ccc(-c4nnn[nH]4)cc23)cc(C2CCN(CC3CC3)CC2)c1 [Compound 107]	10 to 100 nM	–	–
CC(C)C(=O)N1CCC(c2cccc(-c3onc4ccc(-c5nnn[nH]5)cc34)c2)CC1 [Compound 109]	10 to 100 nM	–	–
O=C1CC(C(=O)N2CCC(c3cccc(-c4onc5ccc(-c6nnn[nH]6)cc45)c3)CC2)C1 [Compound 110]	10 to 100 nM	–	–
c1cc(-c2onc3ccc(-c4nnn[nH]4)cc23)cc(C2CCN(C3CC4(CCC4)C3)CC2)c1 [Compound 113]	100 to 1000 nM	–	–
c1cc(-c2onc3ccc(-c4nnn[nH]4)cc23)cc(C2CCN(C3CCCC3)CC2)c1 [Compound 114]	100 to 1000 nM	–	–
CC(C)(C)OC(=O)N1CC(C(=O)N2CCC(c3cccc(-c4onc5ccc(-c6nnn[nH]6)cc45)c3)CC2)C1 [Compound 115]	100 to 1000 nM	–	–
CC(C)(C)OC(=O)N1CCCC1C(=O)N1CCC(c2cccc(-c3onc4ccc(-c5nnn[nH]5)cc34)c2)CC1 (centres unmarked) [Compound 116]	100 to 1000 nM	–	–
c1cc2noc(-c3ccc(C4CCNCC4)cc3)c2cc1-c1nnn[nH]1 [Compound 117]	100 to 1000 nM	–	–

The remaining lines, values ahead:

IC50 (IP6K1)	IC50 (IP6K2)	IC50 (IPMK)	Compound
10 to 100 nM	–	–	CC(=O)N1CCC(c2cccc(-c3onc4ccc(-c5nnn[nH]5)cc34)c2)CC1 [Compound 106]
100 to 1000 nM	–	–	CC1(C(=O)N2CCC(c3cccc(-c4onc5ccc(-c6nnn[nH]6)cc45)c3)CC2)COC1 [Compound 108]
10 to 100 nM	–	–	O=C(C1CC1)N1CCC(c2cccc(-c3onc4ccc(-c5nnn[nH]5)cc34)c2)CC1 [Compound 111]
10 to 100 nM	–	–	O=C(N1CCC(c2cccc(-c3onc4ccc(-c5nnn[nH]5)cc34)c2)CC1)C1(F)CC1 [Compound 112]
10 to 100 nM	–	–	c1cc2noc(-c3ccc(C4CCN(C5CCC5)CC4)cc3)c2cc1-c1nnn[nH]1 [Compound 118]
100 to 1000 nM	–	–	CC(=O)N1CCC(c2ccc(-c3onc4ccc(-c5nnn[nH]5)cc34)cc2)CC1 [Compound 119]
100 to 1000 nM	–	–	CC(C)C(=O)N1CCC(c2ccc(-c3onc4ccc(-c5nnn[nH]5)cc34)cc2)CC1 [Compound 120]
100 to 1000 nM	–	–	CC1(C(=O)N2CCC(c3ccc(-c4onc5ccc(-c6nnn[nH]6)cc45)cc3)CC2)COC1 [Compound 121]
100 to 1000 nM	–	–	O=C(C1CC1)N1CCC(c2ccc(-c3onc4ccc(-c5nnn[nH]5)cc34)cc2)CC1 [Compound 122]
100 to 1000 nM	–	–	O=C(N1CCC(c2ccc(-c3onc4ccc(-c5nnn[nH]5)cc34)cc2)CC1)C1(F)CC1 [Compound 123]
